Laboratory results reported in patent publication US10851073B2, “Protein tyrosine phosphatase inhibitors and methods of use thereof” (Calico Life Sciences LLC, priority 2019, dated 2020).

How the values were obtained:
[1] = molecular target: T1, His tagged full-length PTPN1 protein (Homo sapiens, UniProt P18031); test: Mobility shift assay (MSA) used to determine potency of PTPN1 inhibitors; type: biochemical; settings: enzyme 0.5 nM, substrate 2 μM
T1 construct: made in house
T1 sequence (P18031 with tags, fused parts or gaps): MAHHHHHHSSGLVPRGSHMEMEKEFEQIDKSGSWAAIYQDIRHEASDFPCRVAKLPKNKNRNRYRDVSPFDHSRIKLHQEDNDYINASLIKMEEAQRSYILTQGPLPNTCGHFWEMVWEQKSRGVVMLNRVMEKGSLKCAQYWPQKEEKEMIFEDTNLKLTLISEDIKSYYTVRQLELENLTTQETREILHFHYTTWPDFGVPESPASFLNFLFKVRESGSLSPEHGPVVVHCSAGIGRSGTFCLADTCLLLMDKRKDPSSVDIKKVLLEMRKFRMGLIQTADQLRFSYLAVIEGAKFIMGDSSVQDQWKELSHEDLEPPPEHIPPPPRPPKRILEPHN
Method in brief: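 Full-length His-tagged human PTPN1 (0.5 nM) was preincubated 10 min at room temperature with compound (12-point, 1:3 dilution) in HEPES pH 7.5 buffer with EGTA, EDTA, Tween 20 and DTT. A 2 μM fluorescent phospho-insulin receptor peptide was then added for 10 min before quench. Mobility-shift % conversion gave % inhibition and IC50.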

[2] = molecular target: T2, His tagged PTPN2 (TC45) protein (Homo sapiens, UniProt P17706); test: Mobility shift assay used to determine potency of PTPN2 inhibitors; type: biochemical; settings: enzyme 0.5 nM, substrate 2 μM; read-out: PTPN2 MSA IC50
T2 construct: made in house
T2 sequence (P17706 with tags, fused parts or gaps isoform P17706-2): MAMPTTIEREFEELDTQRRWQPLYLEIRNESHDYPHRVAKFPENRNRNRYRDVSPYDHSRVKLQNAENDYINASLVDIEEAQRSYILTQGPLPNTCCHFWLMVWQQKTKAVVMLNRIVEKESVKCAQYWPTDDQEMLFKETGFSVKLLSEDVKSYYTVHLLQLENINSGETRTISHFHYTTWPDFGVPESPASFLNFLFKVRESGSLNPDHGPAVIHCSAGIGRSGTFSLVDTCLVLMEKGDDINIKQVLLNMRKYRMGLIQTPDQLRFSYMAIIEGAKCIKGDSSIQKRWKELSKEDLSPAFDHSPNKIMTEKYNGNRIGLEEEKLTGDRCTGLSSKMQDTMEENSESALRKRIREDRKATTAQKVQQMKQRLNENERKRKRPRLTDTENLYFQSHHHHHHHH
Method in brief: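 Enzyme (0.5 nM) preincubated with compound (12-point, 1:3 dilution) 10 min at room temperature in 50 mM HEPES pH 7.5, 1 mM EGTA, 10 mM EDTA, 0.01% Tween 20, 2 mM DTT; OG488-labelled phospho-insulin-receptor peptide substrate (2 μM) added for 10 min, then quenched. Microfluidic mobility shift (ex 488/em 530 nm) gave % conversion; IC50 from % inhibition.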

[3] = system: B16F10 mouse melanoma cells; test: B16F10 IFNγ-induced cellular growth inhibition assay; type: cell-based; settings: B16-F10, with 0.5 ng/mL IFNγ, read-out: B16F10 GI IC50
Method in brief: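 B16F10 cells grown in DMEM+10% FBS, with or without 0.5 ng/mL final mouse IFNγ, and dosed in triplicate at 100 μM to 0.001 μM final (0.1% DMSO). Confluence imaged every 6 h for 5 days; percent growth inhibition versus DMSO/with-IFNγ control taken once DMSO/no-IFNγ wells exceeded 95% confluence, giving IC50.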

Structure (SMILES) | IC50 [1] [nM] | IC50 [3] [nM] | IC50 [2] [nM]
C[Si](C)(C)CCCNC1CCc2cc(O)c(N3CC(=O)NS3(=O)=O)c(F)c2C1 (stereo not drawn) [Compound 189, 5-(1-fluoro-3-hydroxy-7-{[3-(trimethylsilyl)propyl]amino}-5,6,7,8-tetrahydronaphthalen-2-yl)-1λ^6,2,5-thiadiazolidine-1,1,3-trione] | > 100 | 1000 to 10000 | 1 to 10
O=C1CN(c2c(O)cc3c(c2F)CN(CCC2CC4CCC2O4)CC3)S(=O)(=O)N1 (stereo not drawn) [Compound 225, 5-{8-fluoro-6-hydroxy-2-[2-(7-oxabicyclo[2.2.1]heptan-2-yl)ethyl]-1,2,3,4-tetrahydroisoquinolin-7-yl}-1λ^6,2,5-thiadiazolidine-1,1,3-trione] | 10 to 100 | 1000 to 10000 | 1 to 10
CC(C)(O)CCOC1CCc2cc(O)c(N3CC(=O)NS3(=O)=O)c(F)c2C1 (stereo not drawn) [Compound 197, 5-[1-fluoro-3-hydroxy-7-(3-hydroxy-3-methylbutoxy)-5,6,7,8-tetrahydronaphthalen-2-yl]-1λ^6,2,5-thiadiazolidine-1,1,3-trione] | 10 to 100 | 1000 to 10000 | 10 to 100
CCCC1(NNC(=O)c2ccccc2)CCc2cc(O)c(N3CC(=O)NS3(=O)=O)c(F)c2C1 (stereo not drawn) [Compound 241, N′-[8-fluoro-6-hydroxy-2-propyl-7-(1,1,4-trioxo-1λ^6,2,5-thiadiazolidin-2-yl)-1,2,3,4-tetrahydronaphthalen-2-yl]benzohydrazide] | 10 to 100 | 10000 to 100000 | 10 to 100
CC(C)CCNC[C@H]1Cc2cc(O)c(N3CC(=O)NS3(=O)=O)c(F)c2C1 (single isomer, unassigned) [Compound 292] | 10 to 100 | 1000 to 10000 | 10 to 100
CO[C@H]1CCc2cc(O)c(N3CC(=O)NS3(=O)=O)c(F)c2C1 (single isomer, unassigned) [Compound 109] | 10 to 100 | 10000 to 100000 | 10 to 100
O=C1CN(c2c(O)cc3c(c2F)CC(NCCOC(F)F)CC3)S(=O)(=O)N1 (stereo not drawn) [Compound 157, 5-(7-{[2-(difluoromethoxy)ethyl]amino}-1-fluoro-3-hydroxy-5,6,7,8-tetrahydronaphthalen-2-yl)-1λ^6,2,5-thiadiazolidine-1,1,3-trione] | 10 to 100 | 1000 to 10000 | 1 to 10
O=C1CN(c2c(O)cc3c(c2F)CC(OCCCC(F)(F)F)CC3)S(=O)(=O)N1 (stereo not drawn) [Compound 142, 5-[1-fluoro-3-hydroxy-7-(4,4,4-trifluorobutoxy)-5,6,7,8-tetrahydronaphthalen-2-yl]-1λ^6,2,5-thiadiazolidine-1,1,3-trione] | 10 to 100 | 10000 to 100000 | 1 to 10
CC(C)CCN[C@H]1CCc2cc(O)c(N3CC(=O)NS3(=O)=O)c(F)c2C1 (single isomer, unassigned) [Compound 117] | 10 to 100 | 1000 to 10000 | 10 to 100
O=C1CN(c2c(O)cc3c(c2F)CC(NCCc2ccccn2)CC3)S(=O)(=O)N1 (stereo not drawn) [Compound 135, 5-(1-fluoro-3-hydroxy-7-{[2-(pyridin-2-yl)ethyl]amino}-5,6,7,8-tetrahydronaphthalen-2-yl)-1λ^6,2,5-thiadiazolidine-1,1,3-trione] | 10 to 100 | 1000 to 10000 | 10 to 100
CC(C)CCNCC1Cc2cc(O)c(N3CC(=O)NS3(=O)=O)c(F)c2C1 (stereo not drawn) [Compound 268, 5-(4-fluoro-6-hydroxy-2-{[(3-methylbutyl)amino]methyl}-2,3-dihydro-1H-inden-5-yl)-1λ^6,2,5-thiadiazolidine-1,1,3-trione] | 10 to 100 | 1000 to 10000 | 10 to 100
COC(C)(C)CCNC1CCc2cc(O)c(N3CC(=O)NS3(=O)=O)c(F)c2C1 (stereo not drawn) [Compound 122, 5-{1-fluoro-3-hydroxy-7-[(3-methoxy-3-methylbutyl)amino]-5,6,7,8-tetrahydronaphthalen-2-yl}-1λ^6,2,5-thiadiazolidine-1,1,3-trione] | 10 to 100 | 1000 to 10000 | 1 to 10
O=C1CN(c2c(O)cc3c(c2F)CC(NCCC2CCCCC2)CC3)S(=O)(=O)N1 (stereo not drawn) [Compound 173, 5-{7-[(2-cyclohexylethyl)amino]-1-fluoro-3-hydroxy-5,6,7,8-tetrahydronaphthalen-2-yl}-1λ^6,2,5-thiadiazolidine-1,1,3-trione] | 1 to 10 | < 1000 | 1 to 10
O=C1CN(c2c(O)cc3c(c2F)CC(NCCC2(C(F)(F)F)CC2)CC3)S(=O)(=O)N1 (stereo not drawn) [Compound 124, 5-[1-fluoro-3-hydroxy-7-({2-[1-(trifluoromethyl)cyclopropyl]ethyl}amino)-5,6,7,8-tetrahydronaphthalen-2-yl]-1λ^6,2,5-thiadiazolidine-1,1,3-trione] | 1 to 10 | < 1000 | 1 to 10

Further lines, with some results ahead:

IC50 [1] [nM] | IC50 [3] [nM] | Structure (SMILES) | IC50 [2] [nM]
1 to 10 | 1000 to 10000 | O=C1CN(c2c(O)cc3c(c2F)CC(NCC[C@H]2C[C@@H](OC(F)(F)F)C2)CC3)S(=O)(=O)N1 (stereo partly drawn) [Compound 234, 5-[1-fluoro-3-hydroxy-7-({2-[(1s,3r)-3-(trifluoromethoxy)cyclobutyl]ethyl}amino)-5,6,7,8-tetrahydronaphthalen-2-yl]-1λ^6,2,5-thiadiazolidine-1,1,3-trione] | 10 to 100
1 to 10 | < 1000 | O=C1CN(c2c(O)cc3c(c2F)CC(NCCC(F)F)CC3)S(=O)(=O)N1 (stereo not drawn) [Compound 223, 5-{7-[(3,3-difluoropropyl)amino]-1-fluoro-3-hydroxy-5,6,7,8-tetrahydronaphthalen-2-yl}-1λ^6,2,5-thiadiazolidine-1,1,3-trione] | 10 to 100
1 to 10 | < 1000 | CC(C)(O)CCNC1CCc2cc(O)c(N3CC(=O)NS3(=O)=O)c(F)c2C1 (stereo not drawn) [Compound 127, 5-{1-fluoro-3-hydroxy-7-[(3-hydroxy-3-methylbutyl)amino]-5,6,7,8-tetrahydronaphthalen-2-yl}-1λ^6,2,5-thiadiazolidine-1,1,3-trione] | 1 to 10
1 to 10 | 1000 to 10000 | CC(C)(CCNC1CCc2cc(O)c(N3CC(=O)NS3(=O)=O)c(F)c2C1)C(F)(F)F (stereo not drawn) [Compound 123, 5-{1-fluoro-3-hydroxy-7-[(4,4,4-trifluoro-3,3-dimethylbutyl)amino]-5,6,7,8-tetrahydronaphthalen-2-yl}-1λ^6,2,5-thiadiazolidine-1,1,3-trione] | 1 to 10
1 to 10 | < 1000 | CCC(C)CCN[C@@H]1CCc2cc(O)c(N3CC(=O)NS3(=O)=O)c(F)c2C1 (stereo partly drawn) [Compound 203, 5-{(7R)-1-fluoro-3-hydroxy-7-[(3-methylpentyl)amino]-5,6,7,8-tetrahydronaphthalen-2-yl}-1λ^6,2,5-thiadiazolidine-1,1,3-trione] | < 1
1 to 10 | 10000 to 100000 | O=C1CN(c2c(O)cc3c(c2F)C[C@@H]([C@@H]2CCN(S(=O)(=O)C4CC4)C2)CC3)S(=O)(=O)N1 (single isomer, unassigned) [Compound 137, 5-{(7RS)-7-[(3RS)-1-(cyclopropanesulfonyl)pyrrolidin-3-yl]-1-fluoro-3-hydroxy-5,6,7,8-tetrahydronaphthalen-2-yl}-1λ^6,2,5-thiadiazolidine-1,1,3-trione] | < 1
1 to 10 | < 1000 | O=C1CN(c2c(O)cc3c(c2F)CC(NCCC2CCC2)CC3)S(=O)(=O)N1 (stereo not drawn) [Compound 185, 5-{7-[(2-cyclobutylethyl)amino]-1-fluoro-3-hydroxy-5,6,7,8-tetrahydronaphthalen-2-yl}-1λ^6,2,5-thiadiazolidine-1,1,3-trione] | 1 to 10
1 to 10 | < 1000 | CC(C)C(O)CNC1CCc2cc(O)c(N3CC(=O)NS3(=O)=O)c(F)c2C1 (stereo not drawn) [Compound 187, 5-{1-fluoro-3-hydroxy-7-[(2-hydroxy-3-methylbutyl)amino]-5,6,7,8-tetrahydronaphthalen-2-yl}-1λ^6,2,5-thiadiazolidine-1,1,3-trione] | 1 to 10
